Laboratory results taken from ChEMBL document CHEMBL1201862, “PubChem BioAssay data set” (2004).
Activity calls are given as the source filed them.

What was measured:
[1] = target: T1, Delta-type opioid receptor (Homo sapiens, UniProt P41143); experiment: SAR Analysis of Antagonists of the DOR Receptor using an Image-Based Assay - Set 2. [Related pubchem assays (depositor defined):AID1777, AID1785, AID1786, AID1966, AID2133, AID2136, AID2284, AID2285, AID2357]; assay type: functional
[2] = target: T2, Kappa-type opioid receptor (Homo sapiens, UniProt P41145); experiment: KOR antagonist analogs, beta-arrestin recruitment, SAR follow-up, cell-based, luminescence, set 2 (AID 2495); assay type: functional
[3] = target: T2, Kappa-type opioid receptor; experiment: SAR analysis of Antagonists of the Kappa Opioid Receptor (KOR) using an Image-Based Assay - Set 2. [Related pubchem assays (depositor defined):AID1777, AID1785, AID1786, AID1966, AID2133, AID2136, AID2284, AID2285, AID2348]; assay type: functional
[4] = target: T1, Delta-type opioid receptor; experiment: SAR Analysis of Agonists of the DOR Receptor using an Image-Based Assay - Set 2. [Related pubchem assays (depositor defined):AID1777, AID1785, AID1786, AID1966, AID2133, AID2136, AID2284, AID2285, AID2370]; assay type: functional
[5] = target: T2, Kappa-type opioid receptor; experiment: SAR analysis of Agonists of the Kappa Opioid Receptor (KOR) using an Image-Based Assay - Set 2. [Related pubchem assays (depositor defined):AID1777, AID1786, AID1966, AID2133, AID2136, AID2284, AID2285, AID2359]; assay type: functional
Mu-type opioid receptor [6] = target: T3, Mu-type opioid receptor (Homo sapiens, UniProt P35372); experiment: SAR Analysis of Antagonists of the MOR Receptor using an Image-Based Assay - Set 2. [Related pubchem assays (depositor defined):AID1777, AID1785, AID1786, AID1966, AID2133, AID2136, AID2284, AID2285, AID2420]; assay type: functional
[7] = target: T2, Kappa-type opioid receptor; experiment: SAR analysis of small molecule agonists of the kappa opioid receptor via a luminescent beta-arrestin assay - Set 2. [Related pubchem assays (depositor defined):AID1777, AID1785, AID1786, AID1966, AID2133, AID2136, AID2284, AID449737]; assay type: functional
Mu-type opioid receptor [8] = target: T3, Mu-type opioid receptor; experiment: SAR Analysis of Agonists of the MOR Receptor using an Image-Based Assay - Set 2. [Related pubchem assays (depositor defined):AID1777, AID1785, AID1786, AID1966, AID2133, AID2136, AID2284, AID2285, AID2352]; assay type: functional
[9] = SV40 cytopathic effect inhibition and cytotoxicity, confirmation, BSC cells, set 3 (AID 485276); assay type: functional, cell-based
[10] = target: T4, Sphingosine 1-phosphate receptor 4 (Homo sapiens, UniProt O95977); experiment: Fluorescence dose response cell-based high throughput screening assay for agonists of the Sphingosine 1-Phosphate Receptor 4 (S1P4). [Related pubchem assays: 1509 (Primary screen.), 1523 (Confirmation screen in triplicates.)]; assay type: functional
T4 sequence (O95977 whole entry): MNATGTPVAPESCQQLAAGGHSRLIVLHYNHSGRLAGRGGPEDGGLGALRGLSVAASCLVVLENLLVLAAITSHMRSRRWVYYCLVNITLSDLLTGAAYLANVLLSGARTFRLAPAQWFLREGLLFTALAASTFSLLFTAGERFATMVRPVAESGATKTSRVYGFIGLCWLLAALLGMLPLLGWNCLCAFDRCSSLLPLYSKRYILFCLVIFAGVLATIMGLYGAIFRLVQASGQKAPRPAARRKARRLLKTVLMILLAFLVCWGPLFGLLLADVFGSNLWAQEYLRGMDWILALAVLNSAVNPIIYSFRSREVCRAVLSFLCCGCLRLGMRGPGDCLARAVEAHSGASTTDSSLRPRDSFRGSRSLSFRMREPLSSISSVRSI

[11] = target: Sphingosine 1-phosphate receptor 1 (Homo sapiens, UniProt P21453); experiment: Fluorescence-based counterscreen assay for S1P4 agonists: Cell-based dose response high throughput screening assay to identify agonists of the Sphingosine 1-Phosphate Receptor 1 (S1P1). [Related pubchem assays (depositor defined):AID1509, AID1523, AID1801, AID463107, AID463118, AID463119, AID463122, AID463123, AID463129, AID463225, AID504400, AID504460]; assay type: functional
[12] = target: T1, Delta-type opioid receptor; experiment: SAR Analysis of Agonists of the DOR Receptor using an Image-Based Assay - Set 3. [Related pubchem assays (depositor defined):AID1777, AID1786]; assay type: functional
[13] = target: T2, Kappa-type opioid receptor; experiment: SAR analysis of small molecule agonists of the kappa opioid receptor via a luminescent beta-arrestin assay - Set 3. [Related pubchem assays (depositor defined):AID1777, AID1785, AID1786, AID1966, AID2133, AID2136, AID2284, AID2500]; assay type: functional
[14] = target: T2, Kappa-type opioid receptor; experiment: KOR agonist analogs, arrestin-GFP redistribution, SAR follow-up, imaging, image-based, set 3 (AID 488833); assay type: functional
Mu-type opioid receptor [15] = target: T3, Mu-type opioid receptor; experiment: SAR Analysis of Agonists of the MOR Receptor using an Image-Based Assay - Set 3. [Related pubchem assays (depositor defined):AID1777, AID1785, AID1786, AID1966, AID2133, AID2136, AID2284, AID2285, AID2352]; assay type: functional
[16] = target: Peroxisome proliferator-activated receptor gamma/Nuclear receptor coactivator 3 (Homo sapiens, UniProt P37231); experiment: (§1) TR-FRET dose response biochemical High Throughput Screening assay for agonists of the steroid receptor coactivator 3 (SRC-3) recruitment by the peroxisome proliferator-activated receptor gamma (PPAR gamma): non-selective agonists. [Related pubchem assays: 1301 (Confirmation screen.), 1048 (Primary screen.)]; assay type: functional
[17] = target: Peroxisome proliferator-activated receptor gamma/Nuclear receptor coactivator 1 (Homo sapiens, UniProt P37231); experiment: as §1, with “1 (SRC-1)” for “3 (SRC-3)”, “assays (depositor defined):AID1300, AID1808, AID504735, AID631]” for “assays: 1301 (Confirmation screen.), 1048 (Primary screen.)]”; assay type: protein assay
[18] = target: Peroxisome proliferator-activated receptor gamma/Nuclear receptor coactivator 2 (Homo sapiens, UniProt P37231); experiment: TR-FRET dose response biochemical High Throughput Screening assay for agonists of the steroid receptor coactivator 2 (SRC-2) recruitment by the peroxisome proliferator-activated receptor gamma (PPAR gamma): non-selective agonists. [Related pubchem assays: 1297, 1032 ]; assay type: functional
[19] = target: T5, G-protein coupled receptor 35 (Homo sapiens, UniProt Q9HC97); experiment: SAR analysis of Agonists of the GPR35 Receptor using an Image-Based Assay - Set 4. [Related pubchem assays (depositor defined):AID2013, AID2026]; assay type: functional
Cannabinoid receptor 1 [20] = target: T6, Cannabinoid receptor 1 (Homo sapiens, UniProt P21554); experiment: SAR analysis of agonists of the Cannabinoid Receptor 1 using an Image-Based Assay - Set 4. [Related pubchem assays (depositor defined):AID2013, AID2026]; assay type: functional
Cannabinoid receptor 2 [21] = target: T7, Cannabinoid receptor 2 (Homo sapiens, UniProt P34972); experiment: SAR analysis of agonists of the Cannabinoid Receptor 2 using an Image-Based Assay - Set 3. [Related pubchem assays (depositor defined):AID2013, AID2026]; assay type: functional
[22] = target: G-protein coupled receptor 55 (Homo sapiens, UniProt Q9Y2T6); experiment: SAR Analysis of Selective Antagonists of GPR55 using an Image-Based Assay - Set 4. [Related pubchem assays (depositor defined):AID2013, AID2026]; assay type: functional;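 further: antagonism of response to 5 µM lysophosphatidylinositol agonist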
Cannabinoid receptor 2 [23] = target: T7, Cannabinoid receptor 2; experiment: SAR analysis of antagonists of the Cannabinoid Receptor 2 using an Image-Based Assay - Set 3. [Related pubchem assays (depositor defined):AID2013, AID2026]; assay type: functional
Cannabinoid receptor 1 [24] = target: T6, Cannabinoid receptor 1; experiment: SAR analysis of antagonists of the Cannabinoid Receptor 1 using an Image-Based Assay - Set 4. [Related pubchem assays (depositor defined):AID2013, AID2026]; assay type: functional
[25] = target: T5, G-protein coupled receptor 35; experiment: SAR analysis of Antagonists of the GPR35 Receptor using an Image-Based Assay - Set 6. [Related pubchem assays (depositor defined):AID2013, AID2026]; assay type: functional
cells = assay type: functional, cell-based
BJ [26] = experiment: cytotoxicity toward BJ-TERT fibroblasts, dose response, cell-based, RAS-independent, luminescence (AID 1933); assay type: functional; conditions: Homo sapiens
[27] = Luminescence Cell-Based Dose Confirmation HTS to Identify Inhibitors of 5'UTR Stem-Loop Driven Alpha-Synuclein mRNA Translation in H4 Neuroglioblastoma Cells. [Related pubchem assays: 1827 (Project Summary), 1813 (Primary HTS)]; assay type: functional
[28] = inhibitors of firefly luciferase expression or activity, dose response, H4 neuroglioma cells, luminescence (AID 1990); assay type: functional, cell-based
BJ [29] = experiment: cytotoxicity toward BJ-TERT-LT-ST fibroblasts, dose response, cell-based, RAS-independent, luminescence (AID 1935); assay type: functional; conditions: Homo sapiens;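 further: BJ fibroblasts immortalized with TERT plus LT and ST oncogenes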
[30] = Luminescence Cell-Based Dose HTS Response to Identify Inhibitors of 5'UTR Stem-Loop Driven Prion Protein mRNA Translation in H4-C Neuroglioblastoma Cells. [Related pubchem assays (depositor defined):AID1814, AID1827]; assay type: functional
[31] = luciferase reporter signal reduction – luminescence, H4-C neuroglioblastoma cells, dose response (AID 2458); assay type: functional, cell-based;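 further: H4 neuroglioblastoma cells stably carrying a luciferase reporter gene fusion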
[32] = inhibitors of SNCA 5'UTR-driven reporter translation, confirmation, H4 neuroglioma cells, luminescence (AID 1988); assay type: functional, cell-based
[33] = Luminescence Cell-Based Dose Retest to Confirm Activators of 5'UTR Stem-Loop Driven Alpha-Synuclein mRNA Translation in H4 Neuroglioblastoma Cells. [Related pubchem assays (depositor defined):AID1813, AID1829]; assay type: functional
[34] = Luminescence Cell-Based Dose Response HTS to Identify Activators of 5'UTR Stem-Loop Driven Prion Protein mRNA Translation in H4-C Neuroglioblastoma Cells. [Related pubchem assays: 1829 (Project Summary), 1814 (Primary HTS)]; assay type: functional
BJ [35] = experiment: cells; assay type: functional, cell-based; conditions: Homo sapiens
[36] = Luminescence Cell-Based Dose Response HTS to Identify Activators of Luciferase Translation or Activity in H4-C Neuroglioblastoma Cells. [Related pubchem assays: 1829 (Project Summary), 1814 (Primary HTS)]; assay type: functional
[37] = cytotoxicity toward DRD oncogenic fibroblasts, dose response, cell-based, non-viral oncogenic, luminescence (AID 1934); assay type: functional; conditions: Homo sapiens
[38] = Luminescence Cell-Based Dose Response HTS to Identify Inhibitors of 5'UTR Stem-Loop Driven Prion Protein mRNA Translation in H4 Neuroglioblastoma Cells. [Related pubchem assays: 1827 (Project Summary), 1813 (Primary HTS)]; assay type: functional
[39] = inhibitors of SNCA 5'UTR-driven translation, confirmation, luminescence, H4 neuroglioblastoma cells, dose confirmation (AID 2454); assay type: functional, cell-based;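 further: H4 neuroglioblastoma cells carrying an alpha-synuclein 5'UTR luciferase reporter; potency for inhibition of the luciferase signal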
[40] = Luminescence Cell-Based Dose Response HTS to Identify Inhibitors of Luciferase Translation or Activity in H4-C Neuroglioblastoma Cells. [Related pubchem assays: 1813 (Primary HTS), 1827 (Project Summary)]; assay type: functional

T2 sequence (P41145 whole entry): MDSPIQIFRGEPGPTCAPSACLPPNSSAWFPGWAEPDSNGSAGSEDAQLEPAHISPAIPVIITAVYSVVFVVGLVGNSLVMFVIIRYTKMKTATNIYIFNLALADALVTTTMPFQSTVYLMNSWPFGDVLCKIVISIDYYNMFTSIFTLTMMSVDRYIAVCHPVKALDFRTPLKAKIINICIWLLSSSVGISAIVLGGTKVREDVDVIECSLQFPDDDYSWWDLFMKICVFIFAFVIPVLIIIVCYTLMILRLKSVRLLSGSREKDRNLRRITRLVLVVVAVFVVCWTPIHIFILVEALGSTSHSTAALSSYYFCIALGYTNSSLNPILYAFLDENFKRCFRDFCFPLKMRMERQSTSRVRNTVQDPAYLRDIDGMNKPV
T1 sequence (P41143 whole entry): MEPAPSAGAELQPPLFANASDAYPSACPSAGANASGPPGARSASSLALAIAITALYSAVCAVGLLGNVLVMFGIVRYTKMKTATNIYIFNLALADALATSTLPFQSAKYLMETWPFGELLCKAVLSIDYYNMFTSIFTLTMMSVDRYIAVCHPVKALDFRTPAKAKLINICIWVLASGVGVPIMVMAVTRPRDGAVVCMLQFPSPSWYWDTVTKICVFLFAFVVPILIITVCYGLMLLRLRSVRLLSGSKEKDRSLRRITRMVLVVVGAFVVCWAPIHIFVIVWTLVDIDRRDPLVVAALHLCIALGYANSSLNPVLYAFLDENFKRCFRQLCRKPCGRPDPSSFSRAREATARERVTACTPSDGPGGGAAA
T3 sequence (P35372 whole entry): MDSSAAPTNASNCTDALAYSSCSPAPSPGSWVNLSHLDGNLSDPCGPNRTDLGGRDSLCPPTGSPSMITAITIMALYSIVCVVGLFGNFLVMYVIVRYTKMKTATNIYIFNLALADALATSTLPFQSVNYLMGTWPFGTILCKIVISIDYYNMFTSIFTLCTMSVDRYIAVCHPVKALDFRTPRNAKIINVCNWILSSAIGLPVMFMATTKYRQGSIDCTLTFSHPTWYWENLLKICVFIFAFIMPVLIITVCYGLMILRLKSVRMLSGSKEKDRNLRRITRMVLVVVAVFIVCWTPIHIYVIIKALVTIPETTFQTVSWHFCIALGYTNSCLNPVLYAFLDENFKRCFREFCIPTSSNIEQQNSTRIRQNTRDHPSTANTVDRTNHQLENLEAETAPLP
T7 sequence (P34972 whole entry): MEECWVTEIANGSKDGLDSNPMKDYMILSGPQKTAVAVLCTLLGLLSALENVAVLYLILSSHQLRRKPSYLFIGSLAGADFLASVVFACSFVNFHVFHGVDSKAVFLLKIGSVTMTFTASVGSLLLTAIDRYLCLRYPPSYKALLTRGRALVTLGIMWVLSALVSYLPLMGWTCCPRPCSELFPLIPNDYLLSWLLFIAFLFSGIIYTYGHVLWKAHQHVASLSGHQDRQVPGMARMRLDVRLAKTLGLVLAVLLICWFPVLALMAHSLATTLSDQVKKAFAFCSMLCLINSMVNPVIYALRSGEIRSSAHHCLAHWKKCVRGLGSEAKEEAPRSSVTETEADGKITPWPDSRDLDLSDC
T6 sequence (P21554 whole entry): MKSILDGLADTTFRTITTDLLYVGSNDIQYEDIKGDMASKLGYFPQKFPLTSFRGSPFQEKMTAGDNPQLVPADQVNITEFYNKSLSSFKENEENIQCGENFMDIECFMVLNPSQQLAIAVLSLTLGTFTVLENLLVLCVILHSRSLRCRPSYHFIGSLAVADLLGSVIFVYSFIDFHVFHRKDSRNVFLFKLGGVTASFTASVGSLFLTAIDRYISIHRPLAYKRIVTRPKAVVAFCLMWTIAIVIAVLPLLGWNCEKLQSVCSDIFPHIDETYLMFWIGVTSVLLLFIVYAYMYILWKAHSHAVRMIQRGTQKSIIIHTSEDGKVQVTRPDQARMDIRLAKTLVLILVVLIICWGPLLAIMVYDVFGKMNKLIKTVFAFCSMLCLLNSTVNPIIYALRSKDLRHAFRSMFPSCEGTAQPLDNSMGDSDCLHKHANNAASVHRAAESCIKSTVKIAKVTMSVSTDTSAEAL
T5 sequence (Q9HC97 whole entry): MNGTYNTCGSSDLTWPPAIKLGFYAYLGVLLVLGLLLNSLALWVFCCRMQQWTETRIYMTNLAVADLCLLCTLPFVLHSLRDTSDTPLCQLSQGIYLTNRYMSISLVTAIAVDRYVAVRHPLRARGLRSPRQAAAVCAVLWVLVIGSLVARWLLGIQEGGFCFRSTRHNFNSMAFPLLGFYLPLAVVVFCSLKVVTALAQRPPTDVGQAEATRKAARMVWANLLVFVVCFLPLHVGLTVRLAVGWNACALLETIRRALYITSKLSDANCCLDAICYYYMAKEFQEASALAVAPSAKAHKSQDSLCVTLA
Sequence of Sphingosine 1-phosphate receptor 1 (P21453 whole entry): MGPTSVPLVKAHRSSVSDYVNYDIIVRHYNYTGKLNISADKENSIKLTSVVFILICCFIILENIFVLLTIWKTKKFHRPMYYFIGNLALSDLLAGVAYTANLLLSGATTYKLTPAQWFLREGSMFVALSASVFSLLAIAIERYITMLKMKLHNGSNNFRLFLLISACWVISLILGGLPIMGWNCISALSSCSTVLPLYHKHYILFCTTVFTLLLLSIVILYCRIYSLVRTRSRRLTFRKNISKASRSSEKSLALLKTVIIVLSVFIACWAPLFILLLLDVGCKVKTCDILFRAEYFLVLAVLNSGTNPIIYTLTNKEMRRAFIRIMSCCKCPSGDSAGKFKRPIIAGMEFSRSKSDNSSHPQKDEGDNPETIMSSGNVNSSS
Sequence of G-protein coupled receptor 55 (Q9Y2T6 whole entry): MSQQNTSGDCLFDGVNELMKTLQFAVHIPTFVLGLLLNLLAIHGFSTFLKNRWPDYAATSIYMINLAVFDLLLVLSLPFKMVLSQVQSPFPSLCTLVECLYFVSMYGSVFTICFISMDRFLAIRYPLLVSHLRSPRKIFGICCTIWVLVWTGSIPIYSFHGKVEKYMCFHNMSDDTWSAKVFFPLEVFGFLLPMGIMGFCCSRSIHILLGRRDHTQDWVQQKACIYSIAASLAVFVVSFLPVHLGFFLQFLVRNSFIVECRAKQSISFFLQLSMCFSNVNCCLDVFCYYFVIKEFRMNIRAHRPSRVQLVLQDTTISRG
Sequence of Peroxisome proliferator-activated receptor gamma/Nuclear receptor coactivator 2 (P37231 whole entry): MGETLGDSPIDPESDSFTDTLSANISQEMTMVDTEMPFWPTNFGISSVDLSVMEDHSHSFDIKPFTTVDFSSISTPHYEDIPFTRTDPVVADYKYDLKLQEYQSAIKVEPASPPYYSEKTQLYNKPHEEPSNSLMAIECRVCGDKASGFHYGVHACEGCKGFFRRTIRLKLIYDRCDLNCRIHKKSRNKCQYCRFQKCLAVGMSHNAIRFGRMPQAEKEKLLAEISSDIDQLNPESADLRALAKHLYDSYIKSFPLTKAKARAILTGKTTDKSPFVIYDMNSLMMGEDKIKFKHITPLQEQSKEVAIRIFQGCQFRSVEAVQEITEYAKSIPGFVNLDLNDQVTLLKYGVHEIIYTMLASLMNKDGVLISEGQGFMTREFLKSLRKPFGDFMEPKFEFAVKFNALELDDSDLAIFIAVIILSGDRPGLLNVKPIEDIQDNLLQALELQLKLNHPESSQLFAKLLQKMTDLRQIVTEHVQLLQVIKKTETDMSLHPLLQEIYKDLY
Sequence of Peroxisome proliferator-activated receptor gamma/Nuclear receptor coactivator 2 (Q15596 whole entry, further chain): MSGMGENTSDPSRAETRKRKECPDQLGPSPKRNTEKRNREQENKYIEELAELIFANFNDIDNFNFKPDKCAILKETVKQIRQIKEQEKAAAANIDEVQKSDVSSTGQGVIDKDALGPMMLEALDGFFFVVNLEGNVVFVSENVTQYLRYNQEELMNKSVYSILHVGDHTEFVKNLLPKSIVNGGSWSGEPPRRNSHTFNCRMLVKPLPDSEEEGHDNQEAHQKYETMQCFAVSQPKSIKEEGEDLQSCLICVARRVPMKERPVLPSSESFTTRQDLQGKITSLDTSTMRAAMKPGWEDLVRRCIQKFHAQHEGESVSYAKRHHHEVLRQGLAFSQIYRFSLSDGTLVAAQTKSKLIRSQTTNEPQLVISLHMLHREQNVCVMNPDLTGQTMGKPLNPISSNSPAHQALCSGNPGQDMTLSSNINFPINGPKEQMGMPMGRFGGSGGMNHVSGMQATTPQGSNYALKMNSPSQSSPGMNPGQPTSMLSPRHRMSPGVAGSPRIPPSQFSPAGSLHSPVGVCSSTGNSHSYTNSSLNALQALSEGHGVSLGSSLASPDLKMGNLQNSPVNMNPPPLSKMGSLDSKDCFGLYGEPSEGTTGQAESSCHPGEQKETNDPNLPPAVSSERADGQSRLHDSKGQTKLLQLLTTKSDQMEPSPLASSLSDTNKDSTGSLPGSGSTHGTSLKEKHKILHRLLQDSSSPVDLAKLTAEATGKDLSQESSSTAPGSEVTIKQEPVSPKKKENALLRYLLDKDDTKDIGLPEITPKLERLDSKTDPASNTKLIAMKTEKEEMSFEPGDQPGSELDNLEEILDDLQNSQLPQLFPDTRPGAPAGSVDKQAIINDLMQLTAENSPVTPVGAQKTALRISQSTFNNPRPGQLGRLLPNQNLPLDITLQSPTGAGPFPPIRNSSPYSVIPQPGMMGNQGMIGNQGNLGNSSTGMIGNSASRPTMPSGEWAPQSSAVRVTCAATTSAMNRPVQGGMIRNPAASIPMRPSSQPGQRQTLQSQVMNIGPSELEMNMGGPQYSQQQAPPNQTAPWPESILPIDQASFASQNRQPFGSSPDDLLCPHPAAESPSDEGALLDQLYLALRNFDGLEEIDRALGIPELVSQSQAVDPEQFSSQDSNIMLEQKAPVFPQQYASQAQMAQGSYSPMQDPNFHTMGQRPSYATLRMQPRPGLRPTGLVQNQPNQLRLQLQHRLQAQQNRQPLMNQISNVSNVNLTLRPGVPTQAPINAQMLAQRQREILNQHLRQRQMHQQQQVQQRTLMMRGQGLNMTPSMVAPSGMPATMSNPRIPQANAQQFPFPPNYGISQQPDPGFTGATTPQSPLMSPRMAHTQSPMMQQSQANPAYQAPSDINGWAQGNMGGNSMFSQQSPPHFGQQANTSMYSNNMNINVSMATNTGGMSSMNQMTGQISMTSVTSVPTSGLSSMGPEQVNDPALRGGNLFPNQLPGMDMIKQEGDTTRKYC

## CCc1ccc(S(=O)(=O)NCc2ccc(C(=O)NCCc3ccccc3)cc2)cc1
[1]
  IC50: > 32 µM (inactive)
[2]
  IC50: > 20 µM (inactive)
[3]
  IC50: > 32 µM (inactive)
[4]
  EC50: > 32 µM (inactive)
[5]
  EC50: > 32 µM (inactive)
Mu-type opioid receptor [6]
  IC50: > 32 µM (inactive)
[7]
  EC50: > 20 µM (inactive)
Mu-type opioid receptor [8]
  EC50: > 32 µM (inactive)

## CC(C)(c1ccc(O)cc1)c1ccc(O)cc1 [BISPHENOL A]
[9]
  IC50: 9.3 µM (active)

## Cc1cccc(-n2c(=O)c(C#N)cc3c(=O)n4ccccc4nc32)c1
[10]
  EC50: 4.06 µM (active)
[11]
  EC50: 8.75 µM (active)

## Fc1cccc(F)c1CSc1nnc(-c2ccccn2)n1Cc1cccs1
[12]
  EC50: > 32 µM (inactive)
[13]
  EC50: 18 µM (inactive)
[14]
  EC50: 20.9 µM (inactive)
Mu-type opioid receptor [15]
  EC50: > 32 µM (inactive)

## CC(C)C(OC(=O)c1cc2occc2n1C)C(=O)NCc1ccc2c(c1)OCO2 (stereo unspecified)
[16]
  EC50: > 79.4 µM (not active)
[17]
  EC50: > 79.4 µM (inactive)
[18]
  EC50: > 79.4 µM (not active)

## N=c1c(C(=O)NCc2ccccc2)cc2c(=O)n3ccccc3nc2n1C1CCCC1
[19]
  EC50: > 32 µM (inactive)
Cannabinoid receptor 1 [20]
  EC50: > 32 µM (inactive)
Cannabinoid receptor 2 [21]
  EC50: 1.31 µM (active)
[22]
  IC50: 4.1 µM (active)
Cannabinoid receptor 2 [23]
  IC50: > 32 µM (inactive)
Cannabinoid receptor 1 [24]
  IC50: 15.9 µM (inactive)
[25]
  IC50: > 32 µM (inactive)

## Cc1ccc(-c2cc(C(=O)N/N=C/c3c(C)nn(-c4ccccc4)c3C)[nH]n2)s1
cells
  EC50: 4.24 µM (active)
BJ [26]
  EC50: 0.413 µM (active)
[27]
  EC50: 1.38 µM (active)
[28]
  EC50: 6.26 µM (inconclusive)
BJ [29]
  EC50: 0.396 µM (inconclusive)
[30]
  EC50: 1.23 µM (active)
[31]
  EC50: 1.71 µM (active)
[32]
  EC50: < 0.1 µM (active)
[33]
  EC50: 2.69 µM (inconclusive)
[34]
  EC50: 0.509 µM (inconclusive)
BJ [35]
  EC50: 46.3 µM (inconclusive)
[36]
  EC50: 1.16 µM (inconclusive)
[37]
  EC50: 20 µM (inconclusive)
[38]
  EC50: 11.6 µM (active)
[39]
  EC50: 6.08 µM (active)
[40]
  EC50: 0.806 µM (active)
